The text below walks through data of patent US20240051946A1, “TARGETED PROTEIN DEGRADATION OF PARP14 FOR USE IN THERAPY” (Ribon Therapeutics, Inc., priority 2022, published 2024).

SMILES strings stand for the structures.

Assay [1] has as its target T1, catalytic domain of human PARP14 (residues 1611 to 1801) with NanoLuc tag (Homo sapiens, UniProt Q460N5).
T1 construct: expressed in transfected cells; host or cells: HEK-293T cells (ATCC), plasmid pRTX240 in pcDNA3.1(-)
T1 sequence (Q460N5 1611-1801): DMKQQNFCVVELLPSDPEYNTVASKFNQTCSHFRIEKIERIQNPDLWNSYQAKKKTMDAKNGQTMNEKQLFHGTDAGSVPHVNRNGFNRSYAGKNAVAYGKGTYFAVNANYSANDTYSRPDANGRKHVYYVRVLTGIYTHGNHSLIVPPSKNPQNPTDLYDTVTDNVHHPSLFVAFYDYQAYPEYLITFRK
The assay can be described thus: NanoLuc assay for the degradation of PARP14. In kind it is cell-based. The following applies: Assay A; NanoLuc-PARP14 overexpressed in HEK-293T cells; 2 hours at 37 degrees; luminescence. An outline of the steps:
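HEK-293T cells transiently transfected 24 hrs with N-terminal NanoLuc-tagged human PARP14 catalytic domain (residues 1611-1801), then exposed to compound dose response for 2 hours at 37 degrees. NanoGlo luminescence expressed as % of 0.1% DMSO wells; DC50 from floating 4-parameter fit, reported as banded ranges.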

Assay [2] relates to Alternaria asthma mouse model. The experiment in a line: Alternaria asthma mouse model: cell counts and cytokines in BALF. The class given is in vivo. The following applies: for total cell counts in BALF: 30 and 100 mg/kg once daily for 7 days subcutaneous, vs vehicle P<0.05. Here is the method:
The effect of Compound 17 was studied in an Alternaria asthma mouse model. On days 1-5, male Balb/c mice under isoflurane anesthesia were challenged by instilling solution of 5 μg (protein weight) Alternaria in 40 μL of PBS into each nostril. Compound 17 was administered two days prior to Alternaria challenge (defined day as day −1) and animals were treated with vehicle (10% DMSO/45% PEG-400/45% ‘20% HP-3-CD’ in water) or Compound 17 (30 and 100 mg/kg) once daily for 7 days (defined as day −1 to day 5) by subcutaneous injection. Total and differential cell counts of the BALF fluid samples were measured using a XT-2000iV analyzer (Sysmex). Cytokine concentrations of BALF supernatant were measured in samples from all groups using ELISA kit (Biotechne, UK). Statistical significance is calculated using one-way ANOVA followed by Dunnett's post-tests in which the treatment groups were compared to vehicle control (P<0.05).

The mark [3] stands for this setting: male Balb/c mice, Alternaria challenge, 30 and 100 mg/kg once daily 7 days s.c., dose-dependent starting from 30 mg/kg.

`O=C1CCC(Nc2ccc(C3CCN(CC4CCN(C(=O)CN5CCC(SCc6nc7cc(OCC8CCOCC8)cc(F)c7c(=O)[nH]6)CC5)CC4)CC3)cc2)C(=O)N1` (centres unmarked) [Example 17, 3-((4-(1-((1-(2-(4-(((5-fluoro-4-oxo-7-((tetrahydro-2H-pyran-4-yl)methoxy)-3,4-dihydroquinazolin-2-yl)methyl)thio)piperidin-1-yl)acetyl)piperidin-4-yl)methyl)piperidin-4-yl)phenyl)amino)piperidine-2,6-dione] yielded a DC50 in assay [1] of under 100 nM. Moreover, the “eosinophil in BALF” value in assay [2] (FIG. 2A legend, dose-dependent starting from 100 mg/kg) was “significantly reduces”. Further, the “cytokine IL-33 in BALF” value in assay [2] (FIG. 2B legend, dose-dependent starting from 100 mg/kg) is recorded as “significantly reduces”; in assay [2] (setting [3]), “significantly reduces”. Moreover, the “cytokine IL-4 in BALF” value is reported as “significantly reduces” in assay [2] (FIG. 2C legend, dose-dependent starting from 100 mg/kg) and “significantly reduces” in assay [2] (setting [3]). Also, the “cytokine IL-5 in BALF” value is reported as “significantly reduces” in assay [2] (FIG. 2D legend, dose-dependent starting from 100 mg/kg) and “significantly reduces” in assay [2] (setting [3]). The “eosinophils in BALF” value in assay [2] (setting [3]) is on record as “significantly reduces”. Also, the “total cell counts in BALF” value is recorded as “dose-dependent reduction” in assay [2] (male Balb/c mice, Alternaria challenge, dose-dependent starting from 30 mg/kg) and “significantly reduces” in assay [2] (male Balb/c mice, Alternaria challenge, dose-dependent starting from 30 mg/kg, listed as Compound 17).
